Entries after “also recorded” stand apart in the source; their conditions may differ. Like-named read-outs stand apart in the source and are kept apart here.
Legend:
[1] = test system: TNBS-induced colitis; format: in vivo, mice; conditions: for effect on CD-like colitis (overall statement): mouse IBD model, acute/chronic not specified; for disease activity (DAI), acute TNBS-colitis: mouse, in vivo
Text: C57BL/6. Mice were pretreated either with PBS (control), or nicotine, PNU (α7 agonist), or MLA drug by peritoneal injection once daily for five days. Mice were then induced to develop colitis for seven days with either TNBS (in 50% ethanol) or 50% ethanol alone as a control. Disease activity of all mice was monitored daily.
(§1) For CD-like mouse model, BALB/c mice were used for the induction of DSS colitis. For CD-like mouse model, BALB/c mice were used for the induction of TNBS-colitis. C57/B6 or BALB/c mice, 6-8 weeks old, were pretreated (daily peritoneal injection) for one week with either nicotine (a non-specific ligand of nAChRα7; 6 mg/kg) or a nAChRα7-specific agonist (PNU; 8.3 mg/kg). Controls were mice without the pre-treatments (a total of >10 mice in each treatment group). The mice were then induced to develop either CD-like colitis with TNBS (600 μg) or UC-like colitis with DSS (2.5%).

[2] = test system: DSS-induced colitis; format: in vivo, mice; conditions: for effect on UC-like colitis (overall statement): mouse IBD model, acute/chronic not specified
Procedure: (§2) In an acute model, mice were treated with or without nAChRα7 agonist drug for five days. DSS were then given for seven days. Clinical activity scores were assessed. In a chronic model, mice were given DSS for seven days followed by seven days water. These DSS-water cycles were repeated three more times continuously. […] At this point, nAChRα7 agonist was given in one set of mice and all mice were followed for eleven days. […] The arrow indicates the start (day 53) of nAChRα7 agonist treatment in the chronic model;
as §1

[3] = test system: chronic DSS colitis; assay: Chronic UC-like DSS colitis, therapeutic treatment; format: in vivo, mice; conditions: four DSS-water cycles, treatment from day 53, followed eleven days
Procedure: as §2
Induction of chronic UC-like colitis was described in the legends of FIG. 6.

[4] = test system: chronic TNBS-induced colitis; format: in vivo, mice
[5] = test system: DSS-induced colitis of nAChRα7 deficient mice; conditions: mouse, in vivo
Procedure: (§3) Wild type (WT) nAChRα7 deficient (nAChRα7 knockout; α7KO) mice, both in C57B/6 background, were induced to develop colitis, either with DSS (A) or TNBS (B). […] N≧6 per group;
(§4) To exclude this possibility, nAChRα7 agonist and antagonist were tested on nAChRα7-knockout mice (nAChRα7-KO), in which development of chemically-induced colitis will not be affected by the agents if they are only specific to nAChRα7.

[6] = test system: TNBS-induced colitis of nAChRα7 deficient mice; conditions: mouse, in vivo
Procedure: as §3, §4

[7] = test system: Gpx1/2-double knockout (DKO) mice ileocolitis; assay: GPX 1/2 DKO colitis; format: in vivo; conditions: administered once signs of colitis were evident
Procedure: Clinical activity scores were assessed.
Once signs of colitis were immediately evident, both nAChRα7 agonists and nAChRα7 antagonists were administered to Gpx1/2-DKO mice.

[8] = at the dose used in the preclinical studies
Text: (§5) Other studies of these nAChRα7-specific drugs, including toxicity and pharmacokinetics, are being investigated.

[9] = test system: mouse behavior (immobility); conditions: DSS-induced colitis mice, IP agonist
Procedure: Tests were carried out on mice forced to swim in a cylindrical container for six minutes. Mice were divided into four groups: (a) control; (b) mice receiving IP agonist; (c) mice induced with DSS; and (d) mice receiving IP agonist and induced with DSS (n=6 in each group). The total duration of immobility in a container with 13 cm of water at 25° C. was scored. Immobility was defined when the mouse stopped struggling and remained floating motionless in the water, making only those movements necessary to keep its head above water. Day 0 and Day 7 indicate the days of DSS treatment.
as §5

[10] = test system: Immortalized (EBV-transformed) B lymphocytes of patients with UC, CD, and unaffected controls
[11] = test system: Ulcerative colitis (UC); conditions: human, in vivo; cited from earlier work
[12] = treatment of established chronic colitis

Compound | effect on CD-like colitis (overall statement) [1] | effect on UC-like colitis (overall statement) [2] | disease activity (DAI), acute DSS-colitis ([2]; mouse, in vivo) | disease activity (clinical activity score), chronic DSS colitis [3] | disease activity (DAI), acute TNBS-colitis [1] | disease activity (DAI), chronic TNBS-colitis [4, 12] | potency compared with nicotine in preventing DSS-induced UC-like colitis ([2]; mouse, in vivo) | therapeutic effect on DSS-induced colitis in nAChRα7KO mice [5] | therapeutic effect on TNBS-induced colitis in nAChRα7KO mice [6] | colitis clinical activity score, GPX 1/2 DKO mice [7] | adverse effect on mice [8] | appearance of major organs (heart, kidney, liver, small and large intestines, spleen) [8] | immobility of DSS-mice in forced swim test [9] | disease activity (DAI), chronic TNBS-colitis ([4]; mouse, in vivo) | anti-inflammatory cytokine IL-10 production [10] | cytokine/chemokine changes, agent by itself [10] | production of proinflammatory cytokine/chemokine IL-8 and MIP-1 [10] | clinical efficacy in UC [11]
COc1ccc(/C=C2\CCCN=C2c2cccnc2)c(OC)c1 [GTS-21, 3-(2,4-dimethoxybenzylidene) anabaseine] | worsened CD-like colitis | highly effective therapeutics for UC-like colitis | similarly effect of preventing development; also recorded: preventing DSS-induced colitis | effectively reverse the disease course | – | – | – | – | – | – | – | – | – | – | – | – | – | –
CCN1C[C@]2(COC(=O)c3ccccc3N3C(=O)C[C@H](C)C3=O)CC[C@H](OC)[C@@]34[C@@H]5C[C@H]6[C@H](OC)[C@@H]5[C@](O)(C[C@@H]6OC)[C@@](O)([C@@H](OC)[C@H]23)[C@@H]14 [MLA, methyllycaconitine] | highly effective therapeutic agent for CD-like colitis | has no effect on UC-like colitis | – | – | efficiently prevent; also recorded: preventing acute TNBS-colitis; also recorded: essentially disappeared; also recorded: effectively prevent | highly therapeutic effect; also recorded: effectively reverses the disease course | – | – | – | – | – | – | – | – | – | – | – | –
O=C(N[C@H]1CN2CCC1CC2)c1ccc(Cl)cc1 [PNU, N-[(3R)-1-azabicyclo[2.2.2]oct-3-yl]-4-chlorobenzamide] | worsened CD-like colitis | highly effective therapeutics for UC-like colitis | prevents DSS-induced UC-like colitis; also recorded: preventing DSS-induced colitis; also recorded: essentially eliminated the inflammation; also recorded: effectively prevent | effectively reverse the disease course; also recorded: essentially eliminated the inflammation | greatly worsens; also recorded: worsens the disease; also recorded: either no therapeutic benefit, even worsening disease activity | no significant effect | slightly more potent | neither agonist (PNU) nor antagonist (MLA) was efficacious; also recorded: no effect at all | neither agonist (PNU) nor antagonist (MLA) was efficacious; also recorded: no effect at all | highly effective in treating colitis | no adverse effect | look normal by appearance | completely reversed the immobility | – | – | – | – | –
CN1CCCC1c1cccnc1 (stereo not drawn) [nicotine] | – | – | prevents the development; also recorded: prevents DSS-induced UC-like colitis; also recorded: effective in preventing UC-like DSS-colitis | – | – | – | – | – | – | – | – | – | – | no significant effect | significant inhibition | insignificant cytokine/chemokine changes | significant production | significant clinical efficacy
